The results in this text go back to patent US20140093513A1, “METHODS OF LOWERING PROPROTEIN CONVERSATE SUBTILISIN/KEXIN TYPE 9 (PCSK9)” (Catabasis Pharmaceuticals, Inc., priority 2012, published 2014).

The subject of this experiment is PCSK9. Put plainly: PCSK9 secretion assay in HepG2 cells (PCSK9 ELISA). In kind it is cell-based. The conditions noted are these: HepG2 cells; for IC50: 16 hours incubation, at least 6 concentrations. The protocol:
HepG2 cells (from ATCC, Catalog no. HB-8065) were maintained in DMEM (Invitrogen) supplemented with 10% fetal bovine serum (Invitrogen). The day prior to the PCSK9 assay, cells are seeded in 96-well collagen coated plates at 25,000 cells/well.
The compounds of the invention were stored at −20° C. until used. The test article compound was dissolved in 100% ethanol to a 50 mM stock solution. This was then diluted in FBS to a final concentration of 1 mM. This solution was placed in a sonicating water bath for 30 minutes. Subsequent dilutions were then made in FBS supplemented with an equivalent volume of ethanol and mixed by vortexing.
HepG2 cells were seeded onto a collagen coated 96-well plate (Becton Dickinson, Catalog no. 35-4407) the day prior to the assay, as described above. The next day, the cell medium was removed, washed once with 100 μL serum free DMEM to remove any residual PCSK9, and replaced with 90 μL of serum free DMEM. Ten microliters of each compound concentration prepared in FBS was then added. Each concentration of compound was tested in triplicate. The compound was incubated with the cells overnight for 16 hours. Following this incubation, 10 μL of AlamarBlue was added to each well and cells incubated for another 2 hours. The plates were then removed and AlamarBlue fluorescence was measured (excitation, 550 nm and […]) to assess cell viability. Cell culture supernatant was then diluted […] 1×RDSP Calibrator Diluent and PCSK9 ELISA was then performed with 50 μL of this diluted sample, as per the manufacturer's instructions. The ELISA was measured on a Victor X5 multilabel plate reader (PerkinElmer) at an absorbance of 450 nm with background correction measured at 550 nm (The PCSK9 Elisa kits can be purchased from R&D System, Catalog no. DPC900).
Alternatively, an IC50 could also be obtained when this type of assay was carried out using at least 6 different concentrations of the test compounds. Table 1 lists the IC50 values for the compounds tested in this assay.

Structures are written as SMILES.

Broadly, the IC50 is the concentration that gives 50% inhibition. `CC/C=C\C/C=C\C/C=C\C/C=C\C/C=C\CCCC(=O)N1CCC(CNC(=O)C(C)(C)Oc2ccc(C(=O)c3ccc(Cl)cc3)cc2)CC1` [VII-20, 2-(4-(4-chlorobenzoyl)phenoxy)-N-((1-((5Z,8Z,11Z,14Z,17Z)-icosa-5,8,11,14,17-pentaenoyl)piperidin-4-yl)methyl)-2-methylpropanamide] had a half-inhibitory concentration (IC50) below 25 µM.
On the same count and under the same terms, in the case of `CC/C=C\C/C=C\C/C=C\C/C=C\C/C=C\CCCC(=O)NCCNC(=O)c1ccncc1` [II-8, N-(2-((5Z,8Z,11Z,14Z,17Z)-icosa-5,8,11,14,17-pentaenamido)ethyl)isonicotinamide] it was above 50 µM; in that of `CC/C=C\C/C=C\C/C=C\C/C=C\C/C=C\CCCC(=O)N1CCC[C@H]1CNC(=O)c1cnc(C)c[n+]1[O-]` [VII-14, 2-((((S)-1-((5Z,8Z,11Z,14Z,17Z)-icosa-5,8,11,14,17-pentaenoyl)pyrrolidin-2-yl)methyl)carbamoyl)-5-methylpyrazine 1-oxide], 25 to 50 µM.
As to `CC/C=C\C/C=C\C/C=C\C/C=C\C/C=C\CCCC(=O)NCC1CCN(C(=O)c2cccnc2)CC1` [Compound I-29, (5Z,8Z,11Z,14Z,17Z)—N-((1-nicotinoylpiperidin-4-yl)methyl)icosa-5,8,11,14,17-pentaenamide], the half-inhibitory concentration (IC50) is below 25 µM.
Same read-out and setting: in the case of `CC/C=C\C/C=C\C/C=C\C/C=C\C/C=C\CCCC(=O)Nc1nc(C)ncc1CNC(=O)C(C)(C)Oc1ccc(C(=O)c2ccc(Cl)cc2)cc1` [VII-41, (5Z,8Z,11Z,14Z,17Z)—N-(5-((2-(4-(4-chlorobenzoyl)phenoxy)-2-methylpropanamido)methyl)-2-methylpyrimidin-4-yl)icosa-5,8,11,14,17-pentaenamide] it was 25 to 50 µM.
On the same count and under the same terms, the figure for `CC/C=C\C/C=C\C/C=C\C/C=C\C/C=C\CCCC(=O)NC[C@H]1CCCN1C(=O)c1cccnc1` [Compound I-33, (5Z,8Z,11Z,14Z,17Z)—N—(((R)-1-nicotinoylpyrrolidin-2-yl)methyl)icosa-5,8,11,14,17-pentaenamide] is below 25 µM.
The same measure, in the same setting: the figure for `CC/C=C\C/C=C\C/C=C\C/C=C\C/C=C\CCCC(=O)NCCNC(=O)c1cnccn1` [II-11, N-(2-((5Z,8Z,11Z,14Z,17Z)-icosa-5,8,11,14,17-pentaenamido)ethyl)pyrazine-2-carboxamide] is above 50 µM; for `CC/C=C\C/C=C\C/C=C\C/C=C\C/C=C\CCCC(=O)NCCNC(=O)c1cccnc1F` [VI-7, 2-fluoro-N-(2-((5Z,8Z,11Z,14Z,17Z)-icosa-5,8,11,14,17-pentaenamido)ethyl)nicotinamide] it is below 25 µM.
On to `CC/C=C\C/C=C\C/C=C\C/C=C\C/C=C\CCCC(=O)NCCNC(C)=O` [Compound A, (5Z,8Z,11Z,14Z,17Z)—N-(2-acetamidoethyl)icosa-5,8,11,14,17-pentaenamide, reference compound], for which the “activity toward PCSK9” value (highest tested concentration of 50 μM, FIG. 1) is “essentially no activity”.
In turn, `CC/C=C\C/C=C\C/C=C\C/C=C\C/C=C\CCCC(=O)N1CC[C@H](NC(=O)c2cnc(C)c[n+]2[O-])C1` [VII-12, 2-(((S)-1-((5Z,8Z,11Z,14Z,17Z)-icosa-5,8,11,14,17-pentaenoyl)pyrrolidin-3-yl)carbamoyl)-5-methylpyrazine 1-oxide] gave an IC50 above 50 µM.
Still for that read-out and setting: in the case of `CC/C=C\C/C=C\C/C=C\C/C=C\C/C=C\CCCC(=O)N(C)CC1CCN(C(=O)c2cccnc2)CC1` [Compound I-48, (5Z,8Z,11Z,14Z,17Z)—N-methyl-N-((1-nicotinoylpiperidin-4-yl)methyl)icosa-5,8,11,14,17-pentaenamide] it was below 25 µM; in that of `CC/C=C\C/C=C\C/C=C\C/C=C\C/C=C\CCCC(=O)N1CCC[C@@H]1CNC(=O)c1cnc(C)c[n+]1[O-]` [VII-13, 2-((((R)-1-((5Z,8Z,11Z,14Z,17Z)-icosa-5,8,11,14,17-pentaenoyl)pyrrolidin-2-yl)methyl)carbamoyl)-5-methylpyrazine 1-oxide], below 25 µM; in that of `CC/C=C\C/C=C\C/C=C\C/C=C\C/C=C\CCCC(=O)NCCNC(=O)C(C)(C)Oc1ccc(CCNC(=O)c2ccc(Cl)cc2)cc1` [II-39, 4-chloro-N-(4-((1-((2-((5Z,8Z,11Z,14Z,17Z)-icosa-5,8,11,14,17-pentaenamido)ethyl)amino)-2-methyl-1-oxopropan-2-yl)oxy)phenethyl)benzamide], below 25 µM.
On the same count and under the same terms, in the case of `CC/C=C\C/C=C\C/C=C\C/C=C\C/C=C\C/C=C\CCC(=O)N(C)CCNC(=O)c1cccnc1` [Compound I-14, N-(2-((4Z,7Z,10Z,13Z,16Z,19Z)—N-methyldocosa-4,7,10,13,16,19-hexaenamido)ethyl)nicotinamide] it was below 25 µM; in that of `CC/C=C\C/C=C\C/C=C\C/C=C\C/C=C\CCCC(=O)N1CCC(CN(C)C(=O)c2cnc(C)c[n+]2[O-])CC1` [VII-16, 2-(((1-((5Z,8Z,11Z,14Z,17Z)-icosa-5,8,11,14,17-pentaenoyl)piperidin-4-yl)methyl)(methyl)carbamoyl)-5-methylpyrazine 1-oxide], 25 to 50 µM.
Still for that read-out and setting: the figure for `CC/C=C\C/C=C\C/C=C\C/C=C\C/C=C\CCCC(=O)N1CCC[C@H]1CNC(=O)c1cccnc1` [Compound I-34, N—(((S)-1-((5Z,8Z,11Z,14Z,17Z)-icosa-5,8,11,14,17-pentaenoyl)pyrrolidin-2-yl)methyl)nicotinamide] is below 25 µM; for `CC/C=C\C/C=C\C/C=C\C/C=C\C/C=C\CCCC(=O)N1CCC(NC(=O)c2c[n+]([O-])cc(C)n2)CC1` [VII-15, 3-((1-((5Z,8Z,11Z,14Z,17Z)-icosa-5,8,11,14,17-pentaenoyl)piperidin-4-yl)carbamoyl)-5-methylpyrazine 1-oxide] it is below 25 µM.
Compound `CC/C=C\C/C=C\C/C=C\C/C=C\C/C=C\CCCC(=O)NCCNC(=O)CCNC(=O)c1cccnc1` [Compound I-26, N-(3-((2-((5Z,8Z,11Z,14Z,17Z)-icosa-5,8,11,14,17-pentaenamido)ethyl)amino)-3-oxopropyl)nicotinamide] yielded an IC50 of 25 to 50 µM.
With `CC/C=C\C/C=C\C/C=C\C/C=C\C/C=C\CCCC(=O)NCCNC(=O)c1cccnc1O` [VI-3, 2-hydroxy-N-(2-((5Z,8Z,11Z,14Z,17Z)-icosa-5,8,11,14,17-pentaenamido)ethyl)nicotinamide], the IC50 is above 50 µM.
Still for that read-out and setting: in the case of `CC/C=C\C/C=C\C/C=C\C/C=C\C/C=C\CCCC(=O)NCC(C)(C)NC(=O)c1cccnc1` [Compound I-21, N-(1-((5Z,8Z,11Z,14Z,17Z)-icosa-5,8,11,14,17-pentaenamido)-2-methylpropan-2-yl)nicotinamide] it was below 25 µM; in that of `CC/C=C\C/C=C\C/C=C\C/C=C\C/C=C\CCCC(=O)N1CC[C@H](N(C)C(=O)c2cccnc2)C1` [Compound I-61, N—((S)-1-((5Z,8Z,11Z,14Z,17Z)-icosa-5,8,11,14,17-pentaenoyl)pyrrolidin-3-yl)-N-methylnicotinamide], above 50 µM.
Still for that read-out and setting: in the case of `CC/C=C\C/C=C\C/C=C\C/C=C\C/C=C\CCCC(=O)N1CC[C@H](CNC(=O)C2=CC(=O)C(C)(c3ccccc3)O2)C1` (stereo partly drawn) [VII-5, N—(((R)-1-((5Z,8Z,11Z,14Z,17Z)-icosa-5,8,11,14,17-pentaenoyl)pyrrolidin-3-yl)methyl)-5-methyl-4-oxo-5-phenyl-4,5-dihydrofuran-2-carboxamide] it was below 25 µM.
On the same count and under the same terms, the figure for `CC/C=C\C/C=C\C/C=C\C/C=C\C/C=C\CCCC(=O)NCCNC(=O)c1ccccn1` [II-9, N-(2-((5Z,8Z,11Z,14Z,17Z)-icosa-5,8,11,14,17-pentaenamido)ethyl)picolinamide] is 25 to 50 µM; for `CC/C=C\C/C=C\C/C=C\C/C=C\C/C=C\C/C=C\CCC(=O)NCCNC(=O)c1cccnc1` [Compound I-7, N-(2-(4Z,7Z,10Z,13Z,16Z,19Z)-docosa-4,7,10,13,16,19-hexaenamidoethyl)nicotinamide] it is below 25 µM.
`CC/C=C\C/C=C\C/C=C\C/C=C\C/C=C\C/C=C\CCC(=O)NCCOCCOCCOCCOC` [III-3, (4Z,7Z,10Z,13Z,16Z,19Z)—N-(2,5,8,11-tetraoxamidecan-13-yl)docosa-4,7,10,13,16,19-hexaenamide]: the IC50 is below 25 µM.
On the same count and under the same terms, in the case of `CC/C=C\C/C=C\C/C=C\C/C=C\C/C=C\C/C=C\CCC(=O)NCCN(C)CCNC(=O)c1cccnc1` [Compound I-2] it was below 25 µM.
`CC/C=C\C/C=C\C/C=C\C/C=C\C/C=C\CCCC(=O)NCCNC(=O)[C@@H](NC(=O)c1cccnc1)C(C)C` [Compound I-25, N—((S)-1-((2-((5Z,8Z,11Z,14Z,17Z)-icosa-5,8,11,14,17-pentaenamido)ethyl)amino)-3-methyl-1-oxobutan-2-yl)nicotinamide] displayed an IC50 of 25 to 50 µM.
